ChEMBL document CHEMBL4190311, “Discovery of cycloalkyl-fused N-thiazol-2-yl-benzamides as tissue non-specific glucokinase activators: Design, synthesis, and biological evaluation” (Eur J Med Chem, 2017)
Calls of active or inactive are those of the source. No cut-off for these calls is given here.

Experiments:
[1] = molecular target: T1, Hexokinase-4 (Rattus norvegicus) (UniProt P17712); test: Activation of glucokinase in rat INS1(832/13) cells assessed as increase in glucose sensitive insulin secretion at 20 uM after 2 hrs in presence of 5.5 mM glucose by AlphaLISA method relative to control; assay type: cell-based
T1 sequence (whole entry): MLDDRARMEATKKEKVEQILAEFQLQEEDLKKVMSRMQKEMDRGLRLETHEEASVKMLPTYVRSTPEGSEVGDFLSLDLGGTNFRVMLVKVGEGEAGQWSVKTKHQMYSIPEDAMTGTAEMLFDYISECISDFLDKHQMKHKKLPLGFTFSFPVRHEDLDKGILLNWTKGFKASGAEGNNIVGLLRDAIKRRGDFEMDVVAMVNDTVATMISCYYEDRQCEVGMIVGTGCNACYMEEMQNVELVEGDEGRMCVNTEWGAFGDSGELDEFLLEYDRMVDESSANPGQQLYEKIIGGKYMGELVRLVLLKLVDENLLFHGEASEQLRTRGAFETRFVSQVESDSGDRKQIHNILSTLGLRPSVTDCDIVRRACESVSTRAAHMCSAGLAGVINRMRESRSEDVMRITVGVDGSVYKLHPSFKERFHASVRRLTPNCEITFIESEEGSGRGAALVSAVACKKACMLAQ

Hexokinase-4 [2] = molecular target: T2, Hexokinase-4 (Homo sapiens, UniProt P35557); test: Activation of recombinant human liver glucokinase 2 assessed as […] in presence of 5 mM glucose by G6PDH coupled assay
T2 sequence (P35557 whole entry): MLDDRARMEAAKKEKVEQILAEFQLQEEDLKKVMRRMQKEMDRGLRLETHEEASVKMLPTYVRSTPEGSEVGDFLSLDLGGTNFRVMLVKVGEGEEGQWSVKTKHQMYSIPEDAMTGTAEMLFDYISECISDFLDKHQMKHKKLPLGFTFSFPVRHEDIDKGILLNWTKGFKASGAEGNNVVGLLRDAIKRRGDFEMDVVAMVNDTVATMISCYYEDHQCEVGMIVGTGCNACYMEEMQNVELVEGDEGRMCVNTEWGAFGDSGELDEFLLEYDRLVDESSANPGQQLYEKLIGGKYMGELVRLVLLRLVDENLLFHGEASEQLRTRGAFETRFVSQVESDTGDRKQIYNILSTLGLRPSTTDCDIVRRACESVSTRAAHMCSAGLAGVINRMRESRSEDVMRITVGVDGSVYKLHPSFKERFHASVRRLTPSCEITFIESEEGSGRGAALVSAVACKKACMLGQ

Hepatocyte = test: Increase in glucose uptake in mouse primary hepatocytes assessed as glucose uptake level at 20 uM after 24 hrs by glucose oxidase method relative to control; assay type: functional
INS1(832/13) [3] = test: Cytoprotection in rat INS1(832/13) cells assessed as reduction in streptozocin induced beta cells apoptosis after 20 hrs by MTT based spectrophotometric method relative to control; assay type: functional; set-up: scale not given: the % may be the effect or the level left
Hexokinase-4 [4] = molecular target: T2, Hexokinase-4; test: Activation of recombinant human liver glucokinase 2 assessed as assessed as reduction in Km for glucose in presence of 5 mM glucose by G6PDH coupled assay
INS1(832/13) [5] = test: Cytoprotection in rat INS1(832/13) cells assessed as reduction in streptozocin induced beta cells apoptosis after 20 hrs by MTT based spectrophotometric method; assay type: functional, cell-based; conditions: INS-1 832/13, 20 h

| Structure (SMILES) | fold change (FC) [1] | EC50 (Hexokinase-4 [2]) [nM] | Activity (Hepatocyte) | Activity (INS1(832/13) [3]) [%] | EC50 (Hexokinase-4 [4]) [nM] | EC50 (INS1(832/13) [5]) [nM] |
| --- | --- | --- | --- | --- | --- | --- |
| CCOC(=O)N1CCc2nc(NC(=O)c3cc(Oc4ccc(C(=O)N5CCC5)cc4)cc(O[C@@H](C)COC)c3)sc2C1 | 5.45 | 230 | 17% | – | – | – |
| COCC(C)Oc1cc(Oc2ccc(S(C)(=O)=O)cc2)cc(C(=O)Nc2nc3c(s2)CN(c2ccccc2)CC3)c1 (stereo not given) | – | > 10000 | – | – | – | – |
| CCN1CCc2nc(NC(=O)c3cc(Oc4ccc(S(C)(=O)=O)cc4)cc(OC(C)COC)c3)sc2C1 (stereo not given) | – | 5420 | – | – | – | – |
| COC[C@H](C)Oc1cc(Oc2ccc(C(=O)N3CCC3)cc2)cc(C(=O)Nc2nc3c(s2)N(C(=O)OC(C)(C)C)CCC3)c1 | – | 6080 | – | – | – | – |
| COCC(C)Oc1cc(Oc2ccc(S(C)(=O)=O)cc2)cc(C(=O)Nc2nc3c(s2)CN(c2ccncc2)CC3)c1 (stereo not given) | 1.3 | 210 | inactive | – | – | – |
| COCC(C)Oc1cc(Oc2ccc(S(C)(=O)=O)cc2)cc(C(=O)Nc2nc3c(s2)CCC3)c1 (stereo not given) | inactive | 100 | 31% | – | – | – |
| COCC(C)Oc1cc(Oc2ccc(S(C)(=O)=O)cc2)cc(C(=O)Nc2nc3c(s2)CCCC3)c1 (stereo not given) | inactive | 890 | 31% | 66 | 30 | 700 |
| COC[C@H](C)Oc1cc(Oc2ccc(C(=O)N3CCC3)cc2)cc(C(=O)Nc2nc3c(s2)CN(c2cc[nH]c(=O)c2)CC3)c1 | 5.51 | 300 | inactive | – | – | – |
| COCC(C)Oc1cc(Oc2ccc(S(C)(=O)=O)cc2)cc(C(=O)Nc2nc3c(s2)CN(Cc2ccccc2)CC3)c1 (stereo not given) | – | > 10000 | – | – | – | – |
| CC(C)(C)OC(=O)N1CCc2nc(NC(=O)c3cc(OCC4CCCC4)cc(Oc4ccc(S(C)(=O)=O)cc4)c3)sc2C1 | – | > 10000 | – | – | – | – |
| COCC(C)Oc1cc(Oc2ccc(S(C)(=O)=O)cc2)cc(C(=O)Nc2nc3c(s2)CN(C(C)C)CC3)c1 (stereo not given) | – | 7080 | – | – | – | – |
| COCC(C)Oc1cc(Oc2ccc(S(C)(=O)=O)cc2)cc(C(=O)Nc2nc3c(s2)C(=O)CCC3)c1 (stereo not given) | – | > 10000 | – | – | – | – |
| COC[C@H](C)Oc1cc(Oc2ccc(C(=O)N3CCC3)cc2)cc(C(=O)Nc2nc3c(s2)CN(c2ccncn2)CC3)c1 | 4.62 | 490 | 16% | – | – | – |
| COC[C@H](C)Oc1cc(Oc2ccc(C(=O)N3CCC3)cc2)cc(C(=O)Nc2nc3c(s2)CN(C(=O)OC)CC3)c1 | 5.68 | 690 | 16% | – | – | – |
| COC[C@H](C)Oc1cc(Oc2ccc(C(=O)N3CCC3)cc2)cc(C(=O)Nc2nc3c(s2)CN(c2ncccn2)CC3)c1 | 6.51 | 170 | 14% | – | – | – |
| COCC(C)Oc1cc(Oc2ccc(C(=O)N3CCC3)cc2)cc(C(=O)Nc2nc3c(s2)CN(C(=O)OC(C)(C)C)CC3)c1 (stereo not given) | 2.29 | 290 | 33% | 180 | 150 | 680 |
| CC(C)(C)OC(=O)N1CCc2nc(NC(=O)c3cc(OCc4ccccc4)cc(Oc4ccc(S(C)(=O)=O)cc4)c3)sc2C1 | inactive | 7000 | 21% | – | – | – |
| COCC(C)Oc1cc(Oc2ccc(S(C)(=O)=O)cc2)cc(C(=O)Nc2nc3c(s2)CN(c2ccccn2)CC3)c1 (stereo not given) | – | 890 | – | – | – | – |
| CC(C)(C)OC(=O)N1CCc2nc(NC(=O)c3cc(Oc4ccc(S(C)(=O)=O)cc4)cc(OC4CCCCC4)c3)sc2C1 | inactive | 550 | 29% | – | – | – |
| COC[C@H](C)Oc1cc(Oc2ccc(C(=O)N3CCC3)cc2)cc(C(=O)Nc2nc3c(s2)CN(CCO)CC3)c1 | – | 4600 | – | – | – | – |
| COC[C@H](C)Oc1cc(Oc2ccc(C(=O)N3CCC3)cc2)cc(C(=O)Nc2nc3c(s2)CN(C(=O)N(C)C)CC3)c1 | 3.52 | 500 | 21% | – | – | – |
| COCC(C)Oc1cc(Oc2ccc(S(C)(=O)=O)cc2)cc(C(=O)Nc2nc3c(s2)COCC3)c1 (stereo not given) | – | > 10000 | – | – | – | – |
| COC[C@H](C)Oc1cc(Oc2ccc(C(=O)N3CCC3)cc2)cc(C(=O)Nc2nc3c(s2)CN(c2ccccn2)CC3)c1 | 2.47 | 290 | 15% | – | – | – |
| COCCN1CCc2nc(NC(=O)c3cc(Oc4ccc(C(=O)N5CCC5)cc4)cc(O[C@@H](C)COC)c3)sc2C1 | 6.07 | 210 | 13% | – | – | – |
| COCC(C)Oc1cc(Oc2ccc(S(C)(=O)=O)cc2)cc(C(=O)Nc2nc3c(s2)CN(c2cccnc2)CC3)c1 (stereo not given) | – | 1090 | – | – | – | – |
| COC[C@H](C)Oc1cc(Oc2ccc(C(=O)N3CCC3)cc2)cc(C(=O)Nc2nc3c(s2)CNCC3)c1 | – | 1130 | – | – | – | – |
| C[C@@H](CO)Oc1cc(Oc2ccc(C(=O)N3CCC3)cc2)cc(C(=O)Nc2nc3c(s2)CN(C(=O)OC(C)(C)C)CC3)c1 | – | 1300 | – | – | – | – |
| CC(C)(C)OC(=O)N1CCc2nc(NC(=O)c3cc(Oc4ccc(S(C)(=O)=O)cc4)cc(OC4CCCC4)c3)sc2C1 | inactive | 180 | 26% | – | – | – |
| COCC(C)Oc1cc(Oc2ccc(S(C)(=O)=O)cc2)cc(C(=O)Nc2nc3c(s2)CN(C)CC3)c1 (stereo not given) | – | 8420 | – | – | – | – |
| Cc1cnc(NC(=O)c2cc(Oc3cnc(C(=O)N(C)C)nc3)c3cc(C)oc3c2)cn1 [NERIGLIATIN] | – | – | – | 114 | – | 2150 |

More lines, main results first:

| fold change (FC) [1] | EC50 (Hexokinase-4 [2]) [nM] | Structure (SMILES) | Activity (Hepatocyte) | Activity (INS1(832/13) [3]) [%] | EC50 (Hexokinase-4 [4]) [nM] | EC50 (INS1(832/13) [5]) [nM] |
| --- | --- | --- | --- | --- | --- | --- |
| 1.42 | 200 | COCC(C)Oc1cc(Oc2ccc(S(C)(=O)=O)nc2)cc(C(=O)Nc2nc3c(s2)CN(C(=O)OC(C)(C)C)CC3)c1 (stereo not given) | 35% | – | – | – |
| – | 230 | COCC(C)Oc1cc(Oc2ccc(S(=O)(=O)C3CC3)cc2)cc(C(=O)Nc2nc3c(s2)CN(C(=O)OC(C)(C)C)CC3)c1 (stereo not given) | – | – | – | – |
| 2.24 | 460 | COC[C@H](C)Oc1cc(Oc2ccc(C(=O)N3CCC3)cc2)cc(C(=O)Nc2nc3c(s2)CCN(C(=O)OC(C)(C)C)C3)c1 | 13% | – | – | – |
| 1.37 | 900 | COCC(C)Oc1cc(Oc2ccc(S(=O)(=O)N3CCC3)cc2)cc(C(=O)Nc2nc3c(s2)CN(C(=O)OC(C)(C)C)CC3)c1 (stereo not given) | inactive | – | – | – |
| – | 2220 | COCC(C)Oc1cc(Oc2ccc(S(C)(=O)=O)cc2)cc(C(=O)Nc2nc3c(s2)CN(C(C)=O)CC3)c1 (stereo not given) | – | – | – | – |
| 1.72 | 320 | COCC(C)Oc1cc(Oc2ccc(S(C)(=O)=O)cc2)cc(C(=O)Nc2nc3c(s2)CN(C(=O)OC(C)(C)C)CC3)c1 (stereo not given) | 36% | – | – | – |
| – | 2600 | COC[C@@H](C)Oc1cc(Oc2ccc(C(=O)N3CCC3)cc2)cc(C(=O)Nc2nc3c(s2)CN(C(=O)OC(C)(C)C)CC3)c1 | – | – | – | – |
| 5.4 | 870 | COCC(C)Oc1cc(Oc2ccc(C(=O)N3CCC3)nc2)cc(C(=O)Nc2nc3c(s2)CN(C(=O)OC(C)(C)C)CC3)c1 (stereo not given) | inactive | – | – | – |
| 1.24 | 90 | COCC(C)Oc1cc(Oc2ccc(C(=O)N(C)C)cc2)cc(C(=O)Nc2nc3c(s2)CN(C(=O)OC(C)(C)C)CC3)c1 (stereo not given) | inactive | – | – | – |
| inactive | 170 | CC(C)Oc1cc(Oc2ccc(S(C)(=O)=O)cc2)cc(C(=O)Nc2nc3c(s2)CN(C(=O)OC(C)(C)C)CC3)c1 | 34% | – | – | – |
| – | 2230 | COCCOc1cc(Oc2ccc(S(C)(=O)=O)cc2)cc(C(=O)Nc2nc3c(s2)CN(C(=O)OC(C)(C)C)CC3)c1 | – | – | – | – |
| 1.3 | 200 | COC[C@H](C)Oc1cc(Oc2cc(F)cc(F)c2)cc(C(=O)Nc2nc3c(s2)CN(C(=O)OC(C)(C)C)CC3)c1 | 15% | – | – | – |
| 1.14 | 820 | COCC(C)Oc1cc(Oc2cccc(S(C)(=O)=O)c2)cc(C(=O)Nc2nc3c(s2)CN(C(=O)OC(C)(C)C)CC3)c1 (stereo not given) | 25% | – | – | – |
| 1.1 | 330 | COC[C@H](C)Oc1cc(Oc2ccc(C(=O)N3CCC3)c(F)c2)cc(C(=O)Nc2nc3c(s2)CN(C(=O)OC(C)(C)C)CC3)c1 | 19% | – | – | – |
| inactive | 140 | CCS(=O)(=O)c1ccc(Oc2cc(OC(C)COC)cc(C(=O)Nc3nc4c(s3)CN(C(=O)OC(C)(C)C)CC4)c2)cc1 (stereo not given) | 34% | – | – | – |
| – | > 10000 | COCC(C)Oc1cc(Oc2ccccc2S(C)(=O)=O)cc(C(=O)Nc2nc3c(s2)CN(C(=O)OC(C)(C)C)CC3)c1 (stereo not given) | – | – | – | – |
